We go through five molecules from patent US4885283A, “Phosphinic acid derivatives” (Hoffmann-La Roche Inc., priority 1986, dated 1989).

The structures appear in SMILES notation. pIC50: −log10 of the molar value.

Experiment [1] concerns the target T1, collagenase obtained from a culture of human synovial fibroblasts (Homo sapiens, UniProt P03956).
T1 construct: endogenous in cells; host or cells: culture of human synovial fibroblasts (conditioned medium)
T1 sequence (P03956 100-469): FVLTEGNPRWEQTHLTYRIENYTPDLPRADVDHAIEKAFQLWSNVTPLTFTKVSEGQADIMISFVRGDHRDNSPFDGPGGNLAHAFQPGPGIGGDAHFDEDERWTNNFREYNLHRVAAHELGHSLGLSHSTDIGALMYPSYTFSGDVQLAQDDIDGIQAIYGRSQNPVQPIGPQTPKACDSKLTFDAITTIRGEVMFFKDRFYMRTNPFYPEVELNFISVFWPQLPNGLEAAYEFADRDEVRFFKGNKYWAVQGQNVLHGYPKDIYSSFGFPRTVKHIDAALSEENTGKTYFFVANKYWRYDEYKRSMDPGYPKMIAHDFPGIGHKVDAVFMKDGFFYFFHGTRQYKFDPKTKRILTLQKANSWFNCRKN
The experiment can be described thus: in vitro inhibition of collagenase (microtitre plate assay, 14C-acetylated collagen type I from rat tail tendons as substrate). It counts as biochemical. The settings on record: human synovial fibroblast collagenase, trypsin-activated; 14C-acetylated collagen type I substrate. The method, then:
Collagenase activity was measured using ^14 C-acetylated collagen type I from rat tail tendons as the substrate and employing the microtitre plate assay method of Johnson-Wint, B. Anal. Biochem. (1980), 104, 175. The IC50 is that concentration of a compound of formula I of the invention in the enzyme digestion which reduces substrate cleavage and solubilization to 50% of that achieved by the enzyme alone.
The results obtained in the foregoing test with representative compounds of this invention are compiled in the Table I hereinafter: […]

Another experiment has as its system female rats. The experiment can be described thus: in vivo type II collagen/Freund's incomplete adjuvant rat test: hind paw inflammation and radiological change. Conditions: 20 mg kg^-1 twice daily for 12 days via jugular vein catheter. The method, then: Groups of female rats received an intradermal injection into the shaved backs of 10×0.1 ml of an emulsion of type II collagen/Freund's incomplete adjuvant. Ten days later the test compound was administered twice daily at a dosage of 20 mg kg^-1 via indwelling jugular vein catheters; dosing was continued for 12 days. Groups of rats which received the intradermal injection, but which were not treated with test compounds, served as the control. The incidence of hind paw inflammation was assessed visually at intervals throughout the test and was expressed as the proportion of the group showing signs of erythema and/or swelling. Radiological change in the ankle region of the hind paws was assessed at the termination of the test and was quantified using an arbitrary scale of from 0=normal to 6=severe change, results being expressed as group means. Statistical analysis was performed using the Mann-Whitney "U" test.

For orientation: pIC50 means −log10 of the IC50, conventionally taken in molar units. As for `CNC(=O)[C@H](CC(C)C)NC(=O)C(CC(C)C)CP(=O)(O)CN1C(=O)c2cccc3cccc(c23)C1=O` (stereo partly drawn) [Compound C, [(RS)-4-methyl-2-[[(S)-3-methyl-1-(methylcarbamoyl)butyl]carbamoyl]pentyl](1,8-naphthalendicarboximidomethyl)phosphinic acid], the pIC50 in experiment [1] was 6.80.

In the case of `CC(C)CC(CP(=O)(O)CN1C(=O)c2cccc3cccc(c23)C1=O)C(=O)NC1CCCCCCCCCCNC1=O` (single isomer, unassigned) [Compound D, [(R or S)-4-methyl-2-[[(R or S)-2-oxo-3-azacyclotridecyl]carbamoyl]pentyl](1,8-naphthalenedicarboximidomethyl)phosphinic acid], the “Inflammation day 4” value in the experiment with female rats (proportion of group showing erythema and/or swelling of hind paw, Control 8/11) is reported as 3/12. For the same molecule, the “Radiological scores, Tarsus” value with female rats (scale 0=normal to 6=severe change, group mean at termination, Control 1.75 ± 0.45) was determined as 0.64 ± 0.37. In addition, the “Radiological scores, Talus” value in the experiment with female rats (scale 0=normal to 6=severe change, group mean at termination, Control 2.28 ± 0.53) is 0.86 ± 0.34. The molecule further showed a negative-log IC50 (pIC50) in experiment [1] of 6.96.

`CC(C)C[C@@H](CP(=O)(O)Cn1c(=O)[nH]c2ccccc2c1=O)C(=O)N[C@@H]1CCCCCCCCCCNC1=O` (single isomer, unassigned) [Compound E, [[1,4-dihydro-2,4-dioxo-3(2H)-quinazolinyl]methyl][(R or S)-4-methyl-2-[[(R or S)-2-oxo-3-azacyclotridecyl]carbamoyl]pentyl]phosphinic acid] showed a negative logarithm of the IC50 (pIC50) in experiment [1] of 6.66.

In experiment [1], `CC(C)CC(CP(=O)(O)CNC(=O)[C@H](CC(C)C)NC(=O)[C@@H]1CCCN1C(=O)OCc1ccccc1)C(=O)N[C@@H](CC(C)C)C(=O)N[C@@H](C)C(=O)O` (single isomer, unassigned) [Compound A, N-[N-[(R or S)-2-[[[[[N-[1-[(benzyloxy)carbonyl]-L-prolyl]-L-leucyl]amino]methyl]hydroxyphosphinyl]methyl]-4-methylvaleryl]-L-leucyl]-L-alanine] showed a pIC50 of 7.25.

In the case of `CNC(=O)[C@H](CC(C)C)NC(=O)C(CC(C)C)CP(=O)(O)CN1C(=O)c2cccc(N)c2C1=O` (mixture of isomers) [Compound B, [(3-aminophthalimido)methyl][(RS)-4-methyl-2-[[(S)-3-methyl-1-(methylcarbamoyl)butyl]carbamoyl]pentyl]phosphinic acid], the pIC50 in experiment [1] was 6.22.
